Our source for the MIC values is DBAASP.

Molecules are shown by their SMILES. ≈ marks a conversion by molar mass, not a printed value. A value given as a limit tells only on which side of the number the result lay.

Some test systems named below: Proteus vulgaris; Escherichia coli D21; Bacillus megaterium Bm11; Acinetobacter baumannii; Burkholderia cepacia; Escherichia coli MC1041; Pseudomonas aeruginosa; Escherichia coli BW25113; Klebsiella pneumoniae; Escherichia coli; Escherichia coli J2210; Escherichia coli HB101; Escherichia coli JJ2489; Escherichia coli JW0013; Escherichia coli ML-35.
Assay in all cases: ≥ marks a high value that may be exact or a test limit, other limits are often not marked, values filed in µg/mL are converted to µM
Experiment [1] relates to Staphylococcus aureus KCTC 1621.
The test system of experiment [2] is Bacillus megaterium KCTC 1096.
The test system of experiment [3] is Bacillus subtilis KCTC 1918.
Experiment [4] deals with Escherichia coli KCTC 1682.
The test system of experiment [5] is Pseudomonas aeruginosa KCTC 1637.
Experiment [6] relates to Escherichia coli ATCC 25922.
In experiment [7] the test system is Staphylococcus aureus ATCC 25923.
Experiment [8] deals with Candida albicans ATCC 18804.
Experiment [9] relates to Bacillus subtilis ATCC 6051.
The test system of experiment [10] is Acinetobacter calcoaceticus Ac11.
Experiment [11] relates to Salmonella enterica subsp. enterica serovar Typhimurium LT2.
In experiment [12] the test system is Micrococcus luteus ATCC 9341.
Experiment [13] has as its system Pseudomonas aeruginosa ATCC 27853.
Experiment [14] relates to Serratia marcescens ATCC 8100.
Experiment [15] relates to Salmonella enterica serovar Typhimurium.
Experiment [16] has as its system Acinetobacter baumannii ATCC 19606.
Experiment [17] concerns Bacillus subtilis DSM 4181.
In experiment [18] the test system is Stenotrophomonas maltophilia ATCC 13637.
Experiment [19] relates to Klebsiella pneumoniae ATCC 700603.
Experiment [20] relates to Salmonella typhimurium SL1344.
Experiment [21] has as its system Enterococcus faecalis ATCC 29212.
In experiment [22] the test system is Staphylococcus epidermidis ATCC 12228.
Experiment [23] concerns Escherichia coli JW2778 ΔygdD.
Experiment [24] deals with Salmonella enterica subsp. enterica serovar Enteritidis MH91989.
Experiment [25] deals with Salmonella enterica subsp. enterica serovar Typhimurium ATCC 14028.
Experiment [26] relates to Escherichia coli JW0368 ΔsbmA.

One may read the MIC as the lowest concentration that inhibits growth of the organism.

With `CC[C@H](C)[C@H](NC(=O)[C@H](CCCCN)NC(=O)[C@H](CCCCN)NC(=O)[C@H](Cc1ccccc1)NC(=O)[C@H](CC(C)C)NC(=O)[C@H](CCCCN)NC(=O)[C@H](Cc1c[nH]c2ccccc12)NC(=O)[C@@H](N)CCCCN)C(=O)N1CCC[C@H]1C(=O)N[C@@H](Cc1cnc[nH]1)C(=O)N[C@@H](CC(C)C)C(=O)N[C@@H](C)C(=O)N[C@@H](CCCCN)C(=O)N[C@@H](CCCCN)C(=O)N[C@@H](Cc1ccccc1)C(N)=O` [KWKLFKKIPHLAKKF], the MIC in experiment [1] is 6.25 µM (≈ 11.9 µg/mL); in experiment [2], 3.12 µM (≈ 5.97 µg/mL); in [3] it was 0.78 µM (≈ 1.49 µg/mL); in experiment [4], 12.5 µM (≈ 23.9 µg/mL); in experiment [5], 12.5 µM (≈ 23.9 µg/mL); in the experiment with Proteus vulgaris, 1.56 µM (≈ 2.98 µg/mL).
Consider `CC[C@H](C)[C@H](NC(=O)[C@H](C)NC(=O)[C@H](CCC(=O)O)NC(=O)[C@H](CO)NC(=O)[C@H](Cc1ccccc1)NC(=O)[C@H](CCCCN)NC(=O)[C@H](Cc1ccccc1)NC(=O)[C@H](CO)NC(=O)[C@H](CCC(=O)O)NC(=O)[C@H](C)NC(=O)[C@@H](NC(=O)[C@H](CCCCN)NC(=O)[C@H](CCCCN)NC(=O)[C@@H](NC(=O)[C@@H](NC(=O)[C@H](CC(=O)O)NC(=O)[C@H](Cc1ccccc1)NC(=O)[C@H](CC(C)C)NC(=O)CN)[C@@H](C)CC)[C@@H](C)CC)[C@@H](C)CC)C(=O)N[C@@H](CCCCN)C(=O)N[C@@H](CCCCN)C(=O)N[C@H](C(=O)N[C@H](C(=O)N[C@@H](CC(=O)O)C(=O)N[C@@H](Cc1ccccc1)C(=O)N[C@@H](CC(C)C)C(=O)NCC(=O)O)[C@@H](C)CC)[C@@H](C)CC` [GLFDIIKKIAESFKFSEAIKKIIDFLG], for which the MIC was 128 µM (≈ 393 µg/mL) in [6], more than 128 µM in experiment [7] and not below 128 µM in experiment [8].
As to `CC[C@H](C)[C@H](NC(=O)[C@H](CCCCN)NC(=O)[C@@H]1CCCN1C(=O)[C@@H](NC(=O)[C@H](CC(C)C)NC(=O)[C@H](C)NC(=O)[C@H](Cc1ccccc1)NC(=O)[C@H](Cc1ccccc1)NC(=O)CN)[C@@H](C)CC)C(=O)N[C@H](C(=O)N[C@@H](CO)C(=O)O)[C@@H](C)CC` [GFFALIPKIIS], the MIC (in [9]; in experiment [10]; in the experiment with Escherichia coli D21; in [11]; in the experiment with Bacillus megaterium Bm11; in experiment [12]) was not below 100 µM throughout. Moreover, the MIC in experiment [13] is more than 100 µM.
As to `CC[C@H](C)[C@H](NC(=O)[C@H](CCCN=C(N)N)NC(=O)[C@@H](N)CCCN=C(N)N)C(=O)N[C@@H](CCCN=C(N)N)C(=O)N1CCC[C@H]1C(=O)N[C@@H](CCCN=C(N)N)C(=O)N1CCC[C@H]1C(=O)N1CCC[C@H]1C(=O)N[C@@H](CCCN=C(N)N)C(=O)N[C@@H](CC(C)C)C(=O)N1CCC[C@H]1C(=O)N[C@@H](CCCN=C(N)N)C(=O)N1CCC[C@H]1C(=O)N[C@@H](CCCN=C(N)N)C(=O)N1CCC[C@H]1C(=O)N[C@@H](CCCN=C(N)N)C(=O)O` [RRIRPRPPRLPRPRPR], the MIC turned out to be 8 µM (≈ 16.6 µg/mL) in [14]; 1 µM (≈ 2.08 µg/mL) in experiment [6]; 5.66 µM (≈ 11.7 µg/mL) in the experiment on Acinetobacter baumannii; 1 µM (≈ 2.08 µg/mL) in experiment [15]; 32 µM (≈ 66.4 µg/mL) in experiment [16]; 1 µM (≈ 2.08 µg/mL) in experiment [17]. The MIC in the experiment on Burkholderia cepacia is not below 128 µM; in the experiment on Escherichia coli MC1041 it was 0.06 µM (≈ 0.125 µg/mL); in [18], not below 64 µM; with Pseudomonas aeruginosa it was 90.5 µM (≈ 188 µg/mL); in experiment [19], 4 µM (≈ 8.31 µg/mL); in experiment [20], 0.06 µM (≈ 0.125 µg/mL). The MIC is 0.06 µM (≈ 0.125 µg/mL) in the experiment on Escherichia coli BW25113; 4 µM (≈ 8.31 µg/mL) against Klebsiella pneumoniae; more than 64 µM in experiment [21]; more than 64 µM in experiment [22]; 8 µM (≈ 16.6 µg/mL) against Escherichia coli; 0.12 µM (≈ 0.249 µg/mL) with Escherichia coli J2210. Moreover, the MIC against Escherichia coli HB101 is 0.5 µM (≈ 1.04 µg/mL); in [23], 0.083 µM (≈ 0.172 µg/mL); in experiment [24], 0.12 µM (≈ 0.249 µg/mL); against Escherichia coli JJ2489, 0.12 µM (≈ 0.249 µg/mL); in experiment [13], more than 64 µM; in experiment [25] it was 1 µM (≈ 2.08 µg/mL). Further, the MIC was more than 128 µM in experiment [7], 0.06 µM (≈ 0.125 µg/mL) with Escherichia coli JW0013, 2 µM (≈ 4.15 µg/mL) in the experiment with Escherichia coli ML-35 and 0.06 µM (≈ 0.125 µg/mL) in experiment [26].
